Reference: patent US10920198B2, “Delta133p53beta and delta133p53gamma isoforms are biomarkers of cancer stem cells” (Centre National de la Recherche Scientifique (CNRS), priority 2015, dated 2021)

B1: Δ133p53γ: human p53 isoform (SEQ ID NO: 3), overexpressed from pMSCVhyg retroviral vector (protein, listed as Homo sapiens)
chain: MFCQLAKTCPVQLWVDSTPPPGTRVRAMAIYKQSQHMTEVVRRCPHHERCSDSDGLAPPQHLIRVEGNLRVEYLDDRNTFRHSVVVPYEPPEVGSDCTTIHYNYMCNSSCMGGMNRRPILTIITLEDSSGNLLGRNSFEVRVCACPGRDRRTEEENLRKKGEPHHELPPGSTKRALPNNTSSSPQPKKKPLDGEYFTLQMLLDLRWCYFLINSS
modifications: SITE (1)..(214) Homo sapiens tumor protein p53, isoform delta133p53gamma (Genbank NP_001119589.1)

Tests used:
[1] = system: c-Myc, Sox 2, Oct 3/4 and Nanog; experiment: Expression of pluripotency/reprogramming factors in MCF-7 cells (RT-qPCR, western blot); assay type: cell-based, human; conditions: for c-Myc expression / expression of Oct 3/4, Nanog and Sox 2: MCF-7 cells after transduction, mRNA and/or protein
From the text: (§1) The following antibodies were used for immunoblotting: anti-c-Myc (9E10 mouse hybridoma clone), -Nanog (sc-81961, Santa Cruz Biotechnology), -Oct 3/4 (sc-8630, Santa Cruz Biotechnology), -Sox 2 (sc-17320, Santa Cruz Biotechnology), -p53 (DO-1; sc-126 Santa Cruz Biotechnology), -p53 Sapu (Vojtesek et al. 1995), -α-tubulin (clone DM1A, Sigma-Aldrich), -β-actin (clone AC-74 Sigma-Aldrich), -p21 (sc-397 Santa Cruz Biotechnology) and -Flag (clone M2; Sigma-Aldrich). Secondary HRP-conjugated antibodies were from GE Healthcare. For luminescence quantification, cells were serially diluted and incubated with 0.5 mM D-luciferin (Sigma). Luminescence was quantified with a Polarstar Omega instrument (BMG LABTECH).
(§2) Total RNA was extracted (Qiagen) and reverse transcription (RT) was performed with 1-5 μg of total RNA using the SuperScript® III Reverse Transcriptase (Life Technologies) at 50° C. Levels of different mRNAs were quantified by real-time qPCR on a LightCycler480 apparatus (Roche). Briefly, 20 ng cDNA was amplified using 0.168 μM of each primer, 0.2 μM of probe (Table 4) and 1× LightCycler® 480 Probes Master Mix (Roche) for the p53 isoforms, or commercially available primers (Qiagen) and 1× LightCycler® 480 Sybr Green Master Mix (Roche) for the other genes. Data were normalized to the internal standard TBP. The different primers used and their corresponding sequences have been previously described (Bourdon et al., 2005). For each single-well amplification reaction, a threshold cycle (Ct) was calculated by using the LightCycler480 program (Roche) in the exponential phase of amplification. Relative changes in gene expression were determined using the 2ΔΔCt method and reported relative to a control. All quantification studies were performed with at least three independent experiments, repeated twice, for each condition. Data are presented as the arithmetic mean±SEM.

MCF-7 cells [2] = experiment: Mammosphere formation in MCF-7 cells; assay type: cell-based, human; conditions: for mammosphere formation: MCF-7 cells after transduction, compared to control cells
Protocol: (§3) For mammosphere formation, 1000 cells/ml (500 cells/well) were plated in Ultra Low Cluster Plate, 24-well, Flat Bottom (Corning Inc) with MammoCult™ Medium enriched with MammoCult™ Proliferation Supplements, hydrocortisone and heparin (Stem Cell Technologies) and cultured for 15 days. For all mammosphere assays, at least three independent experiments for each condition were carried out and repeated 8-12 times. For self-renewal experiments, transfected cells were subjected to a first cycle of mammosphere formation. Upon 15 days of culture the created mammospheres were dissociated and cells were re-plated in identical conditions as for the first plating.

[3] = system: Δ133p53 (α, β and γ) isoforms; experiment: Expression of Δ133p53 isoforms in MCF-7 cells (RT-qPCR, western blot); assay type: cell-based, human; conditions: MCF-7 cells after transduction; RT-qPCR
From the text: as §1
Total RNA was extracted (Qiagen) and reverse transcription (RT) was performed with 1-5 μg of total RNA using the SuperScript® III Reverse Transcriptase (Life Technologies) at 50° C. Levels of different mRNAs were quantified by real-time qPCR on a LightCycler480 apparatus (Roche). […] For each single-well amplification reaction, a threshold cycle (Ct) was calculated by using the LightCycler480 program (Roche) in the exponential phase of amplification. Relative changes in gene expression were determined using the 2ΔΔCt method and reported relative to a control. All quantification studies were performed with at least three independent experiments, repeated twice, for each condition. […]

MCF-7 cells [4] = experiment: Flow cytometry of CD44/CD24 double labeling in MCF-7 cells; assay type: cell-based, human; conditions: MCF-7 cells after transduction
Protocol: (§4) Single cell suspensions were labeled on ice with CD24-FITC, CD44-PE and their respective isotype controls (BioLegend) at the dilutions indicated by the manufacturer in Phosphate Buffered Saline (PBS) with 10% FBS for 30 min. Cells were then washed once with PBS and re-suspended in PBS/10% FBS. All samples were analyzed on a CyAn analyzer ([…] Coulter, Inc) using Sytox Blue (Life Technologies) to monitor cell viability.

MDA-MB-231 C3LND cells [5] = experiment: Flow cytometry of CD44/CD24 double labeling in MDA-MB-231 C3LND cells; assay type: cell-based, human; conditions: C3LND cells after transduction
Protocol: as §4

[6] = system: SW480 colon carcinoma cells; experiment: Colosphere formation in SW480 colon carcinoma cells; assay type: cell-based, human; conditions: compared to control shLuc
Protocol: as §3
The same protocol has been used with human colon carcinoma cell line SW480.

C3LND cancer cells = experiment: Distant metastasis after intracardiac injection of C3LND cells in athymic mice (bioluminescence); assay type: in vivo; conditions: transduced C3LND cells, compared to control cells
Protocol: All in vivo experiments were performed in compliance with the French regulations and ethical guidelines for experimental animal studies in an accredited establishment (Agreement No. C34-172-27). 2.10^6 control or Sh3-treated C3LND cancer cells were grafted in 6 week-old female athymic mice (Harlan, Le Malourlet, France) by intracardiac injection (n=5-7/group). Bioluminescence detection was used to monitor tumor growth and distal metastasis formation in head and legs. Regions of interest (ROI) were delineated around the tumor sites and the total flux (ph/s) in the ROI was measured.

MDA-MB-231 C3LND cells [7] = experiment: Mammosphere formation in MDA-MB-231 C3LND cells; assay type: cell-based, human; conditions: C3LND cells after transduction
Protocol: as §3

[8] = system: c-Myc, Oct 3/4, Nanog and Sox 2; experiment: RT-qPCR of pluripotency/reprogramming factors in MDA-MB-231 C3LND cells; assay type: cell-based, human; conditions: C3LND cells after transduction
Protocol: as §2

MDA-MB-231 D3H2LN cells = experiment: Mammosphere formation in MDA-MB-231 D3H2LN cells; assay type: cell-based, human; conditions: overexpression
Protocol: as §3

[9] = system: c-Myc, Oct 3/4, Nanog and Sox 2; experiment: Expression of pluripotency/reprogramming factors in MDA-MB-231 D3H2LN cells (RT-qPCR, western blot); assay type: cell-based, human; conditions: D3H2LN cells, overexpression
Protocol: The human breast cancer cell lines MCF-7, MDA-MB 231 D3H2LN and C3LND were grown in MEM supplemented with 10% FCS, sodium pyruvate and glutamine. Following viral infection, cells were used after 24-48 h or subjected to selection with 2 μg/ml puromycin (InvivoGen) or 300 μg/ml hygromycin B (Invitrogen) for two days. Etoposide treatment was performed with final doses of 12.5, 25 and 50 ng/ml for 16 h or 50 ng/ml/day for 7 days.
as §1, §2

Molecule	c-Myc expression [1]	expression of Oct 3/4, Nanog and Sox 2 [1]	mammosphere formation (MCF-7 cells [2])	other results
Sh1: shRNA, 5′-GACTCCAGTGGTAATCTAC-3′ (SEQ ID NO: 13); knocks down all p53 isoforms (target site or template, no part of the molecule; short hairpin RNA, only the targeted sequence is given, further chemistry not given here)	no effect	no effect	significant reduction	
Sh2: shRNA, 5′-GTCCAGATGAAGCTCCCAGAA-3′ (SEQ ID NO: 18); targets the long TAp53 and Δ40p53 isoforms (target site or template, no part of the molecule; short hairpin RNA, only the targeted sequence is given, further chemistry not given here)	but not of c-Myc	increased expression	no effect	expression of the Δ133 isoforms [3]: increased; proportion of CD44+/CD24− cells (MCF-7 cells [4]): not affected
Sh3: shRNA, 5′-GGAGGTGCTTACACATGTT-3′ (SEQ ID NO: 14); targets the 5′ UTR of the Δ133 isoforms (α, β and γ) (target site or template, no part of the molecule; short hairpin RNA, only the targeted sequence is given, further chemistry not given here)	not affected	significantly down-regulated	significantly reduced	proportion of CD44+/CD24− cells (MDA-MB-231 C3LND cells [5]): decreased; colospheres formation [6]: significantly reduced; metastasis to distant sites (C3LND cancer cells): less prone to metastasize to distant sites; Oct 3/4, Nanog and Sox 2 expression ([1]; MCF-7 cells, both etoposide treated and untreated): reduced; sphere formation (MDA-MB-231 C3LND cells [7]): significant reduction; Oct 3/4, Nanog and Sox 2 expression [8]: marked decrease; c-Myc level [8]: small increase
Sh4: shRNA, 5′-CTTGTGCCCTGACTTTCAA-3′ (SEQ ID NO: 15); targets the 5′ UTR of the Δ133 isoforms (α, β and γ) (target site or template, no part of the molecule; short hairpin RNA, only the targeted sequence is given, further chemistry not given here)	not affected	significantly down-regulated	significantly reduced	
Sh5: shRNA, 5′-GGACCAGACCAGCTTTCA-3′ (SEQ ID NO: 16); targets the 3′ end of the β isoforms (target site or template, no part of the molecule; short hairpin RNA, only the targeted sequence is given, further chemistry not given here)			significantly reduced	
Sh6: shRNA, 5′-GTGAGCGCTTCGAGATGTT-3′ (SEQ ID NO: 19); targets the 3′ end of the α isoforms (target site or template, no part of the molecule; short hairpin RNA, only the targeted sequence is given, further chemistry not given here)			did not affect	
Δ133p53β: human p53 isoform (SEQ ID NO: 1), overexpressed from pMSCVhyg retroviral vector	but not of c-Myc	significant increase	significantly promoted	mammosphere formation (MDA-MB-231 D3H2LN cells): significant increase; mammosphere formation after harvesting and re-plating of primary mammospheres (MCF-7 cells [2]; MCF-7 cells overexpressing the isoform, self-renewal): higher; Oct 3/4, Nanog and Sox 2 expression [9]: significant increase; c-Myc level [9]: not affected; Oct 3/4, Nanog and Sox 2 expression [8]: increased
B1			milder effect	
